Several values for one entry are separate records, joined by “and”; a condition that tells them apart may be missing. Identical values can stand only once. Like-named read-outs stand apart in the source and are kept apart here.
Key:
[1] = Human radiation dosimetry estimates
[2] = tested on: PSMA+ PC3 PIP and PSMA− PC3 flu xenografts; conditions: for Biodistribution, Bladder (empty) / Biodistribution, Blood / Biodistribution, Bone / Biodistribution, Heart / Biodistribution, Kidney / Biodistribution, Liver / Biodistribution, Lung / Biodistribution, Muscle / Biodistribution, PSMA+ PIP tumor / Biodistribution, PSMA− flu tumor / Biodistribution, Pancreas / Biodistribution, Spleen / Biodistribution, Stomach / Biodistribution, lrg. Intest / Biodistribution, sm. Intest: iv, n = 4
[3] = human source organ, from mouse data

O=C(O)CCC(NC(=O)NC(CCCCNC(=O)c1ccc([18F])nc1)C(=O)O)C(=O)O (centres unmarked) [[^18F]DCFPyL, 2-(3-{1-Carboxy-5-[(6-[^18F]fluoro-pyridine-3-carbonyl)-amino]-pentyl}-ureido)-pentanedioic acid]
Absorbed dose, Total body ([1]; estimated human): 5.71E-03 mGy/MBq
Effective dose ([1]; estimated human): 1.36E-02 mSv/MBq
Effective dose equivalent ([1]; estimated human): 1.80E-02 mSv/MBq
Absorbed dose, Adrenals ([1]; estimated human target organ): 6.46E-03 mGy/MBq
Absorbed dose, Brain ([1]; estimated human target organ): 4.84E-03 mGy/MBq
Absorbed dose, Breasts ([1]; estimated human target organ): 3.97E-03 mGy/MBq
Absorbed dose, Gallbladder wall ([1]; estimated human target organ): 6.48E-03 mGy/MBq
Absorbed dose, Heart wall ([1]; estimated human target organ): 3.26E-03 mGy/MBq
Absorbed dose, Kidneys ([1]; estimated human target organ): 0.05 mGy/MBq and 4.81E-02 mGy/MBq
Absorbed dose, Liver ([1]; estimated human target organ): 7.38E-03 mGy/MBq
Absorbed dose, Lower large intestine wall ([1]; estimated human target organ): 9.40E-03 mGy/MBq
Absorbed dose, Lungs ([1]; estimated human target organ): 3.01E-03 mGy/MBq
Absorbed dose, Muscle ([1]; estimated human target organ): 3.95E-03 mGy/MBq
Absorbed dose, Osteogenic cells ([1]; estimated human target organ): 7.59E-03 mGy/MBq
Absorbed dose, Ovaries ([1]; estimated human target organ): 9.06E-03 mGy/MBq
Absorbed dose, Pancreas ([1]; estimated human target organ): 4.38E-03 mGy/MBq
Absorbed dose, Red marrow ([1]; estimated human target organ): 5.35E-03 mGy/MBq
Absorbed dose, Skin ([1]; estimated human target organ): 3.84E-03 mGy/MBq
Absorbed dose, Small intestine ([1]; estimated human target organ): 7.53E-03 mGy/MBq
Absorbed dose, Spleen ([1]; estimated human target organ): 6.57E-03 mGy/MBq
Absorbed dose, Stomach wall ([1]; estimated human target organ): 5.27E-03 mGy/MBq
Absorbed dose, Testes ([1]; estimated human target organ): 7.06E-03 mGy/MBq
Absorbed dose, Thymus ([1]; estimated human target organ): 4.43E-03 mGy/MBq
Absorbed dose, Thyroid ([1]; estimated human target organ): 4.45E-03 mGy/MBq
Absorbed dose, Upper large intestine wall ([1]; estimated human target organ): 6.67E-03 mGy/MBq
Absorbed dose, Urinary bladder wall ([1]; estimated human target organ): 0.15 mGy/MBq and 1.51E-01 mGy/MBq
Absorbed dose, Uterus ([1]; estimated human target organ): 1.45E-02 mGy/MBq
Time-integrated activity coefficient, Urinary bladder contents ([1]; human source organ, dynamic voiding bladder model, one hour voiding interval): 3.09E-01 MBq-h/MBq
Time-integrated activity coefficient, Heart wall [1, 3]: 3.97E-04 MBq-h/MBq
Time-integrated activity coefficient, Kidneys [1, 3]: 7.47E-02 MBq-h/MBq
Time-integrated activity coefficient, Liver [1, 3]: 4.09E-02 MBq-h/MBq
Time-integrated activity coefficient, Lower large intestine [1, 3]: 4.23E-04 MBq-h/MBq
Time-integrated activity coefficient, Lungs [1, 3]: 3.52E-03 MBq-h/MBq
Time-integrated activity coefficient, Muscle [1, 3]: 4.50E-02 MBq-h/MBq
Time-integrated activity coefficient, Pancreas [1, 3]: 1.48E-04 MBq-h/MBq
Time-integrated activity coefficient, Small intestine [1, 3]: 1.30E-03 MBq-h/MBq
Time-integrated activity coefficient, Spleen [1, 3]: 2.98E-03 MBq-h/MBq
Time-integrated activity coefficient, Stomach [1, 3]: 3.36E-04 MBq-h/MBq
Time-integrated activity coefficient, Upper large intestine [1, 3]: 4.23E-04 MBq-h/MBq
Time-integrated activity coefficient, Remainder ([1]; human, remainder of body, from mouse data): 8.51E-01 MBq-h/MBq
Biodistribution, Bladder (empty) ([2]; 30 min pi): 18.6± 18.1 % ID/g
Biodistribution, Blood ([2]; 30 min pi): 1.53±0.19 % ID/g
Biodistribution, Bone ([2]; 30 min pi): 0.82 ±0.16 % ID/g
Biodistribution, Heart ([2]; 30 min pi): 0.68 ±0.07 % ID/g
Biodistribution, Kidney ([2]; 30 min pi): 74.1 ±6.6 % ID/g
Biodistribution, Liver ([2]; 30 min pi): 3.88 ±0.74 % ID/g
Biodistribution, Lung ([2]; 30 min pi): 1.91 ±0.47 % ID/g
Biodistribution, Muscle ([2]; 30 min pi): 0.39 ±0.05 % ID/g
Biodistribution, PSMA+ PIP tumor ([2]; 30 min pi): 46.7 ±5.8 % ID/g
Biodistribution, PSMA− flu tumor ([2]; 30 min pi): 1.17 ±0.41 % ID/g
Biodistribution, Pancreas ([2]; 30 min pi): 1.02 ±0.53 % ID/g
Biodistribution, Spleen ([2]; 30 min pi): 7.59 ±3.56 % ID/g
Biodistribution, Stomach ([2]; 30 min pi): 1.50±1.12 % ID/g
Biodistribution, lrg. Intest ([2]; 30 min pi): 0.73 ±0.04 % ID/g
Biodistribution, sm. Intest ([2]; 30 min pi): 0.79 ±0.11 % ID/g
Biodistribution, Bladder (empty) ([2]; 60 min pi): 9.88 ±4.92 % ID/g
Biodistribution, Blood ([2]; 60 min pi): 0.24 ±0.05 % ID/g
Biodistribution, Bone ([2]; 60 min pi): 0.42 ±0.15 % ID/g
Biodistribution, Heart ([2]; 60 min pi): 0.20 ±0.11 % ID/g
Biodistribution, Kidney ([2]; 60 min pi): 42.3 ±19.0 % ID/g
Biodistribution, Liver ([2]; 60 min pi): 2.87 ±0.92 % ID/g
Biodistribution, Lung ([2]; 60 min pi): 0.55 ±0.17 % ID/g
Biodistribution, Muscle ([2]; 60 min pi): 0.61 ±0.92 % ID/g
Biodistribution, PSMA+ PIP tumor ([2]; 60 min pi): 44.2 ±9.7 % ID/g
Biodistribution, PSMA− flu tumor ([2]; 60 min pi): 0.36 ±0.14 % ID/g
Biodistribution, Pancreas ([2]; 60 min pi): 0.26 ±0.13 % ID/g
Biodistribution, Spleen ([2]; 60 min pi): 2.70 ±1.28 % ID/g
Biodistribution, Stomach ([2]; 60 min pi): 0.35 ±0.34 % ID/g
Biodistribution, lrg. Intest ([2]; 60 min pi): 0.40 ±0.17 % ID/g
Biodistribution, sm. Intest ([2]; 60 min pi): 0.31 ±0.12 % ID/g
Biodistribution, Bladder (empty) ([2]; 120 min pi): 6.44 ±4.42 % ID/g
Biodistribution, Blood ([2]; 120 min pi): 0.43 ±0.37 % ID/g
Biodistribution, Bone ([2]; 120 min pi): 0.33 ±0.08 % ID/g
Biodistribution, Heart ([2]; 120 min pi): 0.06 ±0.01 % ID/g
Biodistribution, Kidney ([2]; 120 min pi): 15.7 ±3.3 % ID/g
Biodistribution, Liver ([2]; 120 min pi): 2.1 % ID/g
Biodistribution, Lung ([2]; 120 min pi): 0.18 ±0.02 % ID/g
Biodistribution, Muscle ([2]; 120 min pi): 0.04 ±0.00 % ID/g
Biodistribution, PSMA+ PIP tumor ([2]; 120 min pi): 39.4 ±5.4 % ID/g
Biodistribution, PSMA− flu tumor ([2]; 120 min pi): 0.11 ±0.02 % ID/g
Biodistribution, Pancreas ([2]; 120 min pi): 0.08 ±0.00 % ID/g
Biodistribution, Spleen ([2]; 120 min pi): 0.69 ±0.11 % ID/g
Biodistribution, Stomach ([2]; 120 min pi): 0.08 ±0.03 % ID/g
Biodistribution, lrg. Intest ([2]; 120 min pi): 0.12 ±0.05 % ID/g
Biodistribution, sm. Intest ([2]; 120 min pi): 0.11 ±0.07 % ID/g
Biodistribution, Liver ([2]; 120 min pi, listed as [^18F]3): 2.14±0.11 % ID/g
Biodistribution, Bladder (empty) ([2]; 240 min pi): 1.54 ±1.79 % ID/g
Biodistribution, Blood ([2]; 240 min pi): 0.03 ±0.01 % ID/g
Biodistribution, Bone ([2]; 240 min pi): 0.43 ±0.06 % ID/g
Biodistribution, Heart ([2]; 240 min pi): 0.02 ±0.00 % ID/g
Biodistribution, Liver ([2]; 240 min pi): 1.80 ±0.39 % ID/g
Biodistribution, Lung ([2]; 240 min pi): 0.06 ±0.00 % ID/g
Biodistribution, Muscle ([2]; 240 min pi): 0.05 ±0.05 % ID/g
Biodistribution, PSMA+ PIP tumor ([2]; 240 min pi): 36.6 ±4.3 % ID/g
Biodistribution, PSMA− flu tumor ([2]; 240 min pi): 0.03 ±0.01 % ID/g
Biodistribution, Pancreas ([2]; 240 min pi): 0.03 ±0.01 % ID/g
Biodistribution, Spleen ([2]; 240 min pi): 0.23 ±0.09 % ID/g
Biodistribution, Stomach ([2]; 240 min pi): 0.02 ±0.00 % ID/g
Biodistribution, lrg. Intest ([2]; 240 min pi): 0.06 ±0.01 % ID/g
Biodistribution, sm. Intest ([2]; 240 min pi): 0.05 ±0.01 % ID/g
Biodistribution, Kidney ([2]; 240 min pi, listed as [^18F]3): 7.42 ±0.89 % ID/g
Bone uptake ([2]; at all time points): < 1 % ID/g
Non-target tissue uptake ([2]; at or after 1 h post-injection): minimal non-target tissue uptake
Decrease of PSMA+ PC3 PIP xenograft uptake ([2]; from 30 min pi over the ensuing 4 h): about 10%
